According to article PMC10815238, “New N-Terminal Fatty-Acid-Modified Melittin Analogs with Potent Biological Activity” (International Journal of Molecular Sciences, 2024):
≈ marks a conversion by molar mass, not a printed value.

Tests used:
[1] = system: Multidrug-Resistant Escherichia coli (E. coli) Strain; format: cell-based; details: NB medium, 37 °C, 18 h, three independent measurements
Excerpt: The standard strains of S. aureus ATCC 43300, E. faecalis ATCC 29212, E. coli ATCC 25922, and P. aeruginosa ATCC 27853 were obtained from the American Type Culture Collection (ATCC). L. monocytogenes CVCC 3764 and B. cereus CVCC 4101 were obtained from the National Center for Veterinary Culture Collection (CVCC). S. castellani CGMCC 1.1869 was obtained from the China General Microbiological Culture Collection Center. The multidrug-resistant strain Escherichia coli was obtained from the research base of the Chongqing Academy of Animal Sciences (Chongqing, China). All strains were cultured in nutrient broth overnight at 37 °C to a logarithmic growth phase before each experiment.
MIC was determined using the broth microdilution method with minor modification. In brief, bacteria (S. aureus ATCC 43300, E. faecalis ATCC 29212, E. coli ATCC 25922, P. aeruginosa ATCC 27853, L. monocytogenes CVCC 3764, B. cereus CVCC 4101, S. Castellani CGMCC 1.1869, and the multidrug-resistant E. coli strain) were cultured in nutrient broth (NB) medium (Macklin, Shanghai, China) to the logarithmic phase and diluted to 1 × 10^6 colony forming units (CFUs)/mL. The MDLs were dissolved to a final concentration of 256~0.25 μg/mL in NB medium using two-fold dilutions. […]

[2] = system: Bacillus cereus (B. cereus) CVCC 4101; format: cell-based; details: NB medium, 37 °C, 18 h, three independent measurements
Description: (§1) MIC was determined using the broth microdilution method with minor modification. In brief, bacteria (S. aureus ATCC 43300, E. faecalis ATCC 29212, E. coli ATCC 25922, P. aeruginosa ATCC 27853, L. monocytogenes CVCC 3764, B. cereus CVCC 4101, S. Castellani CGMCC 1.1869, and the multidrug-resistant E. coli strain) were cultured in nutrient broth (NB) medium (Macklin, Shanghai, China) to the logarithmic phase and diluted to 1 × 10^6 colony forming units (CFUs)/mL. The MDLs were dissolved to a final concentration of 256~0.25 μg/mL in NB medium using two-fold dilutions. A total of 50 μL of different concentrations of the MDL solutions and an equal volume of bacterial suspension were added to a 96-well plate, which was then incubated at 37 °C for 18 h. The minimum concentrations of the MDLs with no visible growth of bacteria were defined as the corresponding MICs. Media containing bacteria without the MDLs were set as the negative control. Each measurement was performed independently three times.

[3] = system: Enterococcus faecalis (E. faecalis) ATCC 29212; format: cell-based; details: NB medium, 37 °C, 18 h, three independent measurements
Description: as §1

[4] = system: Shigella castellani (S. castellani) CGMCC 1.1869; format: cell-based; details: NB medium, 37 °C, 18 h, three independent measurements
Description: as §1

[5] = system: pepsin; details: after 2 h of incubation; cited from earlier work
Excerpt: Poor protease stability is one of the main factors that has limited melittin’s clinical application.

[6] = system: swine erythrocytes; assay: Hemolytic activity assay; format: cell-based; details: swine erythrocytes in PBS, 1 h, 37 °C; concentration more than 4 μg/mL
Description: The hemolytic activity of the MDLs was evaluated as described previously with minor modification. Swine erythrocytes were collected by centrifugation at 1000 rpm for 5 min, washed three times, and suspended to a final concentration of 8% vol/vol with PBS (Macklin, Shanghai, China). Equal volumes of erythrocyte suspension and the MDLs solutions at various concentrations were mixed in a 96-well plate and incubated for 1 h at 37 °C. After centrifugation at 1000 rpm for 10 min, the supernatant was transferred to a 96-well plate. The supernatant optical density (OD) was measured at 490 nm using a microplate reader (BioTek, Winooski, VT, USA). Untreated erythrocytes and erythrocytes treated with 1% Triton X-100 (Merck, Darmstadt, Germany) were employed as the negative and positive controls, respectively. The hemolysis percentage was calculated using the following equation: Hemolysis rate%=OD490(lipopeptide)−OD490(PBS)/OD490(1% Triton X-100)−OD490(PBS)×100%

[7] = fetal bovine serum, human serum, and human plasma; cited from earlier work
Excerpt: However, binding with serum albumin would weaken the detection of the free MDLs and reduce their antibacterial activity.

[8] = system: trypsin; details: cited from earlier work
Description: (§2) Despite its multiple potential biological activities, the applications for melittin are limited due to its severe hemolytic activity and low proteolytic stability. Melittin results in 50% hemolysis of human red blood cells at a concentration of 2 μM and 100% at 7 μM [19].

[9] = system: human red blood cells; details: cited from earlier work
Description: as §2

Q: For `CC[C@H](C)[C@H](NC(=O)CN)C(=O)NCC(=O)N[C@@H](C)C(=O)N[C@H](C(=O)N[C@@H](CC(C)C)C(=O)N[C@@H](CCCCN)C(=O)N[C@H](C(=O)N[C@@H](CC(C)C)C(=O)N[C@H](C(=O)N[C@H](C(=O)NCC(=O)N[C@@H](CC(C)C)C(=O)N1CCC[C@H]1C(=O)N[C@@H](C)C(=O)N[C@@H](CC(C)C)C(=O)N[C@H](C(=O)N[C@@H](CO)C(=O)N[C@@H](Cc1c[nH]c2ccccc12)C(=O)N[C@H](C(=O)N[C@@H](CCCCN)C(=O)N[C@@H](CCCNC(=N)N)C(=O)N[C@@H](CCCCN)C(=O)N[C@@H](CCCNC(=N)N)C(=O)N[C@@H](CCC(N)=O)C(=O)N[C@@H](CCC(N)=O)C(N)=O)[C@@H](C)CC)[C@@H](C)CC)[C@@H](C)O)[C@@H](C)O)C(C)C)C(C)C` [Mel, Melittin], which MIC [1] is on record?
A: Its MIC is 64 µg/mL (≈ 22.5 µM).

Q: What about the MIC [2] of the same compound?
A: The MIC was 16 µg/mL (≈ 5.62 µM).

Q: What about the MIC [3] of the same compound?
A: Its MIC is 16 µg/mL (≈ 5.62 µM).

Q: And the MIC [4]?
A: Its MIC is 32 µg/mL (≈ 11.2 µM).

Q: And the degradation by pepsin [5]?
A: The degradation by pepsin was “entirely degraded”.

Q: What about the hemolysis rate [6] of the same compound?
A: The hemolysis rate was “rapidly increased”.

Q: What about the “stability in serum and plasma” value [7] of the same compound?
A: The value was “stable”.

Q: What about the “melittin left after incubation with trypsin” value ([8]; after 60 min of incubation) of the same compound?
A: The value was “almost no melittin is left”.

Q: And the digestion by trypsin [8]?
A: The digestion by trypsin was “digested rapidly”.

Q: What about the “concentration resulting in 50% hemolysis” value [9] of the same compound?
A: The value was 2 µM.

Q: What about the “concentration resulting in 100% hemolysis” value [9] of the same compound?
A: Its value is 7 µM.
